Laboratory results published in patent US20200245660A1, “AGROCHEMICAL-FREE SIRAITIA GROSVENORII EXTRACT, AND METHOD FOR PREPARING SAME” (priority 2015, published 2020).
Like-named read-outs stand apart in the source and are kept apart here.

Key:
[1] = cited from earlier work
physchem = assay type: physicochemical; conditions: LogPow
Procedure: These agrochemicals are each a compound having a distribution coefficient (LogPow) of 1.71 or more. Herein, the distribution coefficient of a target compound specifically means the 1-octanol/water distribution coefficient (LogPowow) thereof. When the target compound is added into two solvent phases (of 20 to 25° C.) of 1-octanol and water to make the two phases into an equilibrium state, the distribution coefficient more specifically means the concentration ratio of the compound between the two phases (1-octanol/water). The distribution coefficient may be gained by a flask method or an HPLC method. The distribution coefficient is a physicochemical index representing the hydrophobicity (solubility into lipid) of the compound. As the compound is higher in distribution coefficient, the compound is higher in hydrophobicity. It is known that as the compound is higher in hydrophobicity, the compound is higher in storability in a living body and is also stronger in toxicity. Thus, it can be stated that as the compound is higher in distribution coefficient, the compound is an agrochemical stronger in toxicity.
For reference, out of the six, about dimethomorph, tebuconazole, difenoconazole, metalaxyl, and metalaxyl M, the respective LogPow values are shown below. […]

In the case of CC1COC(Cn2cncn2)(c2ccc(Oc3ccc(Cl)cc3)cc2Cl)O1 (centres unmarked) [Difenoconazole, difenoconazole], the LogPow ([1]; 25 °C, Flask method) is listed as 4.4.

In the case of COCC(=O)N(c1c(C)cccc1C)C(C)C(=O)OC (centres unmarked) [Metalaxyl, metalaxyl], the LogPow ([1]; 25 °C, Flask method) is given as 1.75.

For COCC(=O)N(c1c(C)cccc1C)[C@H](C)C(=O)OC [Metalaxyl M, metalaxyl M], the LogPow ([1]; 25 °C, HPLC method) is listed as 1.71.

CC(C)(C)C(O)C(Oc1ccc(Cl)cc1)n1cncn1 (centres unmarked) [Triadimenol, triadimenol] showed a chromatographic logP (physchem) of ~2.96.

For CC(C)(C)C(O)(CCc1ccc(Cl)cc1)Cn1cncn1 (centres unmarked) [Tebuconazole, tebuconazole], the LogPow ([1]; 20 °C, Flask method) is listed as 3.7.
